Format: physicochemical
Experimental: Moreover, the assay of Hexadecyl Treprostinil crystal Form I can be kept between about 98.0% to about 102.0% even after thirty-six months of placement under normal storage temperature (about 5° C. to about −20° C.). […] Moreover, the assay of Hexadecyl Treprostinil crystal Form II can be kept between about 98.0 to about 102.0% even after thirty-six months of placement under normal storage temperature (about 5° C. to about […]).

## Hexadecyl Treprostinil [Hexadecyl Treprostinil crystal Form I]
  stability (other crystalline forms or degraded products of impurities): no other crystalline forms or degraded products of impurities

From US10781160B1, “Hexadecyl Treprostinil crystals and methods for preparation thereof” (CHIROGATE INTERNATIONAL INC., priority 2019, dated 2020)
